Where two headings read alike, the source gives them in different places.
Conditions: 20 mcg/mL, tromethamine 10 mg/mL, 5.4 mg/mL sodium chloride in water
Description: Separate samples containing 20 mcg/mL levothyroxine sodium, 10 mg/mL tromethamine, 5.4 mg/mL sodium chloride, and sodium iodide at a concentration of 280 mcg/mL, 140 mcg/mL, or 6 mcg/mL in water were adjusted to various pH levels. 5 mL of each sample was filled into 10 cc flint molded vials, and the vials were stoppered with 20 mm stoppers under nitrogen.
The samples also were stored at temperatures of 25° C. or 40° C. for 2M or 4M prior to analysis by HPLC.
The HPLC conditions were as follows: • Column: Phenomenex Kinetex 2.6 μm C18, 4.6×150 mm HPLC column • Mobile Phase A: 0.05 M Sulfamic Acid, pH 2.0 • Mobile Phase B: Acetonitrile • Diluent: 10% Mobile Phase A in Methanol: Acetonitrile: Mobile Phase A (1000 mL: 300 mL: 700 mL) • Column temperature: 27° C. • Flow rate: 1.2 mL/min • Injection volume: 50 μL • Autosampler temperature: 25° C. • Detection: UV at 225 nm • Separation mode: Gradient Gradient Program: […]

[1] = 25° C., 2 M, NaI 6 mcg/mL, pH 10.5
[2] = 25° C., 2 M, NaI 140 mcg/mL, pH 9.5
[3] = 25° C., 2 M, NaI 140 mcg/mL, pH 10
[4] = 25° C., 2 M, NaI 140 mcg/mL, pH 10.5
[5] = 25° C., 2 M, NaI 280 mcg/mL, pH 9.5
[6] = 25° C., 2 M, NaI 280 mcg/mL, pH 10
[7] = 25° C., 2 M, NaI 280 mcg/mL, pH 10.5
[8] = 25° C., 4 M, NaI 6 mcg/mL, pH 10.5
[9] = 25° C., 4 M, NaI 140 mcg/mL, pH 9.5
[10] = 25° C., 4 M, NaI 140 mcg/mL, pH 10
[11] = 25° C., 4 M, NaI 140 mcg/mL, pH 10.5
[12] = 25° C., 4 M, NaI 280 mcg/mL, pH 9.5
[13] = 25° C., 4 M, NaI 280 mcg/mL, pH 10
[14] = 25° C., 4 M, NaI 280 mcg/mL, pH 10.5
[15] = 40° C., 2 M, NaI 6 mcg/mL, pH 10.5
[16] = 40° C., 2 M, NaI 140 mcg/mL, pH 9.5
[17] = 40° C., 2 M, NaI 140 mcg/mL, pH 10
[18] = 40° C., 2 M, NaI 140 mcg/mL, pH 10.5
[19] = 40° C., 2 M, NaI 280 mcg/mL, pH 9.5
[20] = 40° C., 2 M, NaI 280 mcg/mL, pH 10
[21] = 40° C., 2 M, NaI 280 mcg/mL, pH 10.5
[22] = 40° C., 4 M, NaI 6 mcg/mL, pH 10.5
[23] = 40° C., 4 M, NaI 140 mcg/mL, pH 9.5
[24] = 40° C., 4 M, NaI 140 mcg/mL, pH 10
[25] = 40° C., 4 M, NaI 140 mcg/mL, pH 10.5
[26] = 40° C., 4 M, NaI 280 mcg/mL, pH 9.5
[27] = 40° C., 4 M, NaI 280 mcg/mL, pH 10
[28] = 40° C., 4 M, NaI 280 mcg/mL, pH 10.5

Compound: N[C@@H](Cc1cc(I)c(Oc2cc(I)c(O)c(I)c2)c(I)c1)C(=O)[O-].[Na+] [Levothyroxine Na, 4-(4-hydroxy-3,5-diiodophenoxy)-3,5-diiodo-L-phenylalanine sodium]
- % AOII [1]: 0.46%
- % total impurities [1]: 1.85%
- % AOII [2]: 0.09%
- % Liothyronine [2]: 0.29%
- % total impurities [2]: 0.76%
- % AOII [3]: 0.10%
- % total impurities [3]: 0.77%
- % AOII [4]: 0.12%
- % Liothyronine [4]: 0.24%
- % total impurities [4]: 0.88%
- % AOII [5]: 0.11%
- % total impurities [5]: 0.81%
- % AOII [6]: 0.12%
- % Liothyronine [6]: 0.24%
- % total impurities [6]: 0.8%
- % AOII [7]: 0.11%
- % Liothyronine [7]: 0.23%
- % total impurities [7]: 0.85%
- % AOII [8]: 1.21%
- % total impurities [8]: 2.81%
- % AOII [9]: 0.18%
- % Liothyronine [9]: 0.35%
- % total impurities [9]: 1.00%
- % AOII [10]: 0.17%
- % total impurities [10]: 0.93%
- % AOII [11]: 0.17%
- % total impurities [11]: 0.94%
- % AOII [12]: 2.14%
- % Liothyronine [12]: 0.35%
- % total impurities [12]: 3.26%
- % AOII [13]: 0.17%
- % total impurities [13]: 0.93%
- % AOII [14]: 0.11%
- % total impurities [14]: 1.04%
- % AOII [15]: 0.91%
- % Liothyronine [15]: 0.43%
- % total impurities [15]: 2.5%
- % AOII [16]: 0.14%
- % Liothyronine [16]: 0.88%
- % total impurities [16]: 1.42%
- % AOII [17]: 0.14%
- % Liothyronine [17]: 0.55%
- % total impurities [17]: 1.18%
- % AOII [18]: 0.15%
- % Liothyronine [18]: 0.41%
- % total impurities [18]: 1.09%
- % AOII [19]: 0.13%
- % Liothyronine [19]: 0.9%
- % total impurities [19]: 1.56%
- % AOII [20]: 0.13%
- % Liothyronine [20]: 0.55%
- % total impurities [20]: 1.2%
- % AOII [21]: 0.17%
- % Liothyronine [21]: 0.39%
- % total impurities [21]: 1.07%
- % AOII [22]: 1.45%
- % Liothyronine [22]: 0.6%
- % total impurities [22]: 3.51%
- % AOII [23]: 0.72%
- % Liothyronine [23]: 1.3%
- % total impurities [23]: 2.84%
- % AOII [24]: 0.92%
- % Liothyronine [24]: 0.86%
- % total impurities [24]: 2.73%
- % AOII [25]: 0.69%
- % Liothyronine [25]: 0.59%
- % total impurities [25]: 2.14%
- % AOII [26]: 0.52%
- % Liothyronine [26]: 1.23%
- % total impurities [26]: 2.76%
- % AOII [27]: 1.38%
- % Liothyronine [27]: 0.84%
- % total impurities [27]: 3.23%
- % AOII [28]: 1.07%
- % Liothyronine [28]: 0.58%
- % total impurities [28]: 2.72%

Source: patent publication US12636270B2, “Levothyroxine liquid formulations” (Fresenius Kabi USA, LLC, priority 2016, dated 2026)
